According to article PMC11881437 (Molecular Medicine, 2025):
Read-outs that look alike come from different tables or passages of the source.

Experiments:
[1] = system: HCT116 cells; assay: MTT cell viability assay; format: cell-based, human; conditions: for IC50: Homo sapiens
Description: HCT116 cells (1 × 10^3 cells/well) were seeded in 96-well plates and cell viability was determined using MTT (Sigma-Aldrich, USA). […] MTT (0.5 mg/ml) was added to the cells after 48 h of treatment and incubated for 3 h in dark at 37 °C. The generated formazan complexes were dissolved in DMSO and the absorbance were measured at 550 nm using a spectrophotometer (Infinite® 200 PRO, TECAN, Switzerland) (Bhowmik et al. [2013]).

[2] = system: HUVEC; assay: Sprout (tube) formation assay with conditioned medium of CES; format: cell-based, human; conditions: for sprout formation: numbers and length of tubes: HUVEC, 24 h with CM of treated CES
Description: (§1) HCT116 CRC cells were grown in ultra-low attachment plate in 3dGRO™ Spheroid Medium (Sigma-Aldrich, USA) for 7 days. Spheroids enriched with CSCs were considered as CSC enriched spheres (CESs) or commonly referred as tumorospheres. After 7 days, tumorospheres were subjected to different treatments for 24 h, as per experimental protocol. Media of tumorospheres of all the treatment groups were collected, centrifuged to remove the cell debris and suspended spheres, supernatants were collected and vacuum concentrated. These supernatants were referred as conditioned medium (CM) and were stored at − 20 °C until use.
Matrigel was thawed overnight and the plate was coated with Matrigel (BD Bioscience, USA) and incubated for 1 h for polymerization. HUVECs (1 × 10^4) were seeded onto the Matrigel coated plate. After 8 h, media were changed with CM of interest. After 24 h of treatment tube formation was visualized microscopically and photographs were captured (DM 1000, Leica, Germany). The tube numbers were quantified by counting the branches between two discrete endothelial cells and length of the tubes were measured using Image J software by drawing a line along each tube and measuring the length in micrometer.

[3] = system: chick chorioallantoic membrane; assay: Chick chorioallantoic membrane (CAM) assay with conditioned medium of CES; conditions: CM of treated CES, day 4 vs day 1
Description: HCT116 CRC cells were grown in ultra-low attachment plate in 3dGRO™ Spheroid Medium (Sigma-Aldrich, USA) for 7 days. Spheroids enriched with CSCs were considered as CSC enriched spheres (CESs) or commonly referred as tumorospheres. After 7 days, tumorospheres were subjected to different treatments for 24 h, as per experimental protocol. Media of tumorospheres of all the treatment groups were collected, centrifuged to remove the cell debris and suspended spheres, supernatants were collected and vacuum concentrated. These supernatants were referred as conditioned medium (CM) and were stored at − 20 °C until use. To investigate the role of CSC on angiogenesis, a modified chick chorioallantoic membrane assay was carried out. Briefly, 100 µl CM of treated and untreated spheres were mixed with 1.5 mg/ml type I collagen (Gibco, USA). 10 µl of the mixture were loaded on the piece of 13 mm Thermanox discs (Nunc, Denmark) and permitted to get polymerize. The disc was then applied to the chorioallantoic membrane of a 4 days-old embryo. After 72 h of incubation, the area around the loaded disc was photographed with a digital camera, and the numbers of newly formed vessels were counted by two observers in a double-blind manner (Min et al. [2004]).

[4] = Hepatic oxidative parameters and liver/kidney histopathology, 10 days treatment; format: in vivo, BALB/c mice; conditions: 5 mg/kg b.w i.v.; for kidney histopathology / liver histopathology: H&E
Description: (§2) To determine the toxicity of only Orientin treatment in various doses, the mice were divided into five groups. Each group contained six animals (n = 6). Each animal of the vehicle control group (VC) was left untreated, while, mice of other four groups were administered Orientin intravenously with 1 mg/kg b.w, 3 mg/kg b.w, 5 mg/kg b.w and 10 mg/kg b.w dosage respectively for 28 days. […] All the treatments were continued for 10 days. On day 11 all the mice were sacrificed and different parameters were studied.
Values of all the parameters were calculated with respect to the amount of total protein present in liver homogenates.
Various organs and solid tumors collected after sacrificing the mice were embedded into paraffin after 10% neutral buffered formalin fixation. 4 μm sections were prepared and used for histopathological study.

[5] = system: HIF1α, VEGFA, NF-ĸB; assay: Western blot of HIF1α, VEGFA and NF-ĸB in CES; format: cell-based, human; conditions: 24 h
Description: Cells were incubated with Brefeldin A (10 µg/ml) for 4 h before harvesting to determine VEGFA expression. Briefly, cells were lysed with RIPA buffer [50 mmol/L Tris–HCl (pH 7.8), 150 mmol/L NaCl, 1% Triton X-100, 0.1% SDS, 0.5% sodium deoxycholate, and 1 mmol/L EDTA] containing complete protease inhibitor cocktail. Equal amount of protein was electrophoresed on SDS-PAGE and electro transferred onto polyvinylidene difluoride (PVDF) membranes using Bio-Rad mini gel apparatus. The membranes were probed with OCT4 (Thermo Fisher Scientific, USA), SOX2 (AbCam, USA), NANOG (Thermo Fisher Scientific, USA), HIF1α (Thermo Fisher Scientific, USA) and VEGFA (Thermo Fisher Scientific, USA) and NF-ĸB (Santa Cruz Biotechnology, USA) antibodies. β-Actin (Santa Cruz Biotechnology, USA) and α-TUBULIN (Santa Cruz Biotechnology, USA) antibodies were used as loading control. Then, the blots were probed with HRP tagged secondary antibodies. Signals were detected with the ECL system (Promega, USA) and images were captured in iBright™ CL1500 Imaging System.

[6] = system: HIF1α, VEGFA; assay: Western blot and immunocytochemistry in HIF1α transfected HCT116 cells; format: cell-based, human
Description: (§3) HCT116 cells were transiently transfected with HA-HIF1α-pcDNA3 plasmid (Addgene, USA, Plasmid #18949) by using lipofectamineTM 2000 (Thermo Fisher Scientific, USA) according to the manufacturer’s instructions. After 24 h of transfection, those cells were subjected to various experiments.

[7] = system: CES from HIF1α transfected HCT116 cells; assay: Diameter and number of CES from HIF1α transfected HCT116 cells; format: cell-based, human
Description: as §1, §3

[8] = Toxicity of Orientin alone in mice, 28 days; format: in vivo, BALB/c mice
Description: as §2
Glutathione-S-transferase (GST), superoxide dismutase (SOD), Catalase (CAT), Glutathione peroxidase (GPx) and reduced glutathione (GSH) activity in hepatic tissue were assessed as described previously (Hajra et al. [2018b]). Values of all the parameters were calculated with respect to the amount of total protein present in liver homogenates.
Various organs and solid tumors collected after sacrificing the mice were embedded into paraffin after 10% neutral buffered formalin fixation. 4 μm sections were prepared and used for histopathological study. Standard Hematoxylin and Eosin (H&E) staining protocol was used and sections were visualized under light microscope (DM 1000, Leica, Germany) (Hajra et al. [2018a]).

[9] = parameters: method as in Tan et al. [2013]; Chagas et al. [2020]; Zhang et al. [2007]; conditions: ref Tan et al. [2013]; Chagas et al. [2020]; Zhang et al. [2007]; cited from earlier work

Row | SMILES | reduction of IC50 in combination compared to individual treatment ([1]; HCT116, MTT, 48 h) | IC50 ([1]; HCT-116, HCT116, MTT, 48 h, used separately, read-out: IC50) [µM] | sprout formation: numbers and length of tubes [2] | number of blood vessels formed in CAM [3] | hepatic LPO, ROS and NO [4] | hepatic GSH and activity of GST, GPx, SOD and CAT ([4]; 5FU vs vehicle control, combination vs 5FU) | kidney histopathology [4] | liver histopathology [4] | IC50 ([1]; HCT-116, 48 h) [µM] | number of sprouting and length of tubes, comparison with VEGFA neutralizing antibody ([2]; HUVEC with CM of treated CES, 5 µg/ml VEGFA neutralizing antibody, 26 µM Orientin) | NF-ĸB expression [5] | HIF1α and VEGFA expression by immunocytochemistry [6] | diameter of spheres [7] | number of spheres [7] | hepatic GSH and activity of GST, GPx, SOD and CAT ([8]; 5 mg/kg b.w Orientin i.v., 28 days) | hepatic LPO level ([8]; 5 mg/kg b.w Orientin i.v., 28 days, vs control) | histopathology of liver, heart, lung and kidney ([8]; 5 mg/kg b.w Orientin, vs control) | excretion [9] | metabolism [9] | tissue distribution [9]
1 | O=c1[nH]cc(F)c(=O)[nH]1 [5FU, 5-Fluorouracil, reference compound] | approximately 50% | 13 | instigated sprout formations by increasing the numbers and length of tubes | increase in number of blood vessel formation | induce | reduced | distorted Bowman’s capsule, glomeruli, blood and cellular infiltration | distorted central vein, necrosis, cellular and blood infiltration | – | – | – | – | – | – | – | – | – | – | – | –
2 | O=c1cc(-c2ccc(O)c(O)c2)oc2c([C@@H]3O[C@H](CO)[C@@H](O)[C@H](O)[C@H]3O)c(O)cc(O)c12 [Orientin] | approximately 50% | – | remarkably reduced | Non-significant change | – | – | did not induce any toxicity | remained normal | 26 | same level of inhibition | downregulated | reduced | decrease | decrease | increase | significantly decreased | no histopathological changes | excreted primarily through urine | hepatic metabolism via CYP450 enzymes | widely distributed in different tissues
